In US8263637B2, “Methods for treatment of multiple myeloma using cyclopropane carboxylic acid {2-[(is)-1-(3-ethoxy-4-methoxy-phenyl)-2-methanesulfonyl-ethyl]-3-oxo-2,3-dihydro-1 h-isoindol-4-yl}-amide” (Celgene Corporation, priority 2002, dated 2012):

Key:
[1] = Cardiovascular and respiratory function in anesthetized dogs; assay type: in vivo, Beagle dogs
Method: The effects of 3-(3,4-dimethoxy-phenyl)-3-(1-oxo-1,3-dihydro-isoindol-2-yl)-propionamide on cardiovascular and respiratory function are investigated in anesthetized dogs. Two groups of Beagle dogs (2/sex/group) are used. One group receives three doses of vehicle only and the other receives three ascending doses of the compound (200, 400, and 800 mg/kg). In all cases, doses of the compound or vehicle are successively administered via infusion through the jugular vein separated by intervals of at least 30 minutes.
The cardiovascular and respiratory changes induced by 3-(3,4-diethoxy-phenyl)-3-(1-oxo-1,3-dihydro-isoindol-2-yl)-propionamide are minimal at all doses when compared to the vehicle control group.

TNF-α production = assay: Inhibition of TNF-α production following LPS-stimulation of human PBMC and human whole blood; assay type: cell-based; conditions: in vitro studies; relative to thalidomide
Source text: In a specific embodiment, the pharmacological properties of 3-(3,4-dimethoxy-phenyl)-3-(1-oxo-1,3-dihydro-isoindol-2-yl)-propionamide are characterized in in vitro studies. Studies examine the effects of the compound on the production of various cytokines. Inhibition of TNF-α production following LPS-stimulation of human PBMC and human whole blood by the compound is investigated in vitro. […] The pharmacological effects of 3-(3,4-dimethoxy-phenyl)-3-(1-oxo-1,3-dihydro-isoindol-2-yl)-propionamide may derive from its action as an inhibitor of the generation of inflammatory cytokines.

COc1ccc(C(CC(N)=O)N2Cc3ccccc3C2=O)cc1OC (stereo not drawn) [3-(3,4-dimethoxy-phenyl)-3-(1-oxo-1,3-dihydro-isoindol-2-yl)-propionamide]
cardiovascular and respiratory changes compared to the vehicle control group ([1]; all doses (200, 400, and 800 mg/kg), infusion through the jugular vein): minimal
deviations in femoral blood flow, respiratory parameters, and Qtc interval ([1]; common to both the control and treated groups): not considered treatment-related
arterial blood pressure effect at higher doses ([1]; higher doses): not seen
duration of the arterial blood pressure effect ([1]; low dose): approximately 15 minutes
arterial blood pressure, difference between vehicle and treatment groups ([1]; low dose, statistically significant): small increase
pharmacological activity profile, times more potent than thalidomide (TNF-α production): five to fifty
